According to PubChem BioAssay (NCI):
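In this assay, cells in 96-well plates receive the compound at five concentrations for 48 hours. Endpoints are linearly interpolated between the surrounding concentrations. TGI denotes the concentration required for complete inhibition of growth.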

Tests used:
Test in all cases: DTP human tumour cell line panel, 48 h
[1] = test system: CCRF-CEM leukemia
[2] = test system: NCI-H460 lung
[3] = test system: BT-549 breast
[4] = test system: OVCAR-3 ovarian
[5] = test system: SK-MEL-28 melanoma
[6] = test system: NCI-H522 lung
[7] = test system: IGROV1 ovarian
[8] = test system: DU-145 prostate
[9] = test system: A549 NSCLC
[10] = test system: NCI/ADR-RES ovarian
[11] = test system: HOP-62 NSCLC
[12] = test system: TK-10 renal
[13] = test system: PC-3 prostate
[14] = test system: EKVX NSCLC
[15] = test system: HCT-116 colon
[16] = test system: SNB-75 CNS
[17] = test system: OVCAR-5 ovarian
[18] = test system: K-562 leukemia
[19] = test system: NCI-H226 lung
[20] = test system: HCC-2998 colon
[21] = test system: MDA-MB-231 breast
[22] = test system: RPMI-8226 leukemia
[23] = test system: MDA-MB-435
[24] = test system: U251 CNS
[25] = test system: UO-31 renal
[26] = test system: HL-60(TB) leukemia
[27] = test system: 786-0 renal
[28] = test system: MALME-3M melanoma
[29] = test system: SNB-19 CNS
[30] = test system: MDA-N
[31] = test system: M14 melanoma
[32] = test system: SK-MEL-2 melanoma
[33] = test system: HOP-92 NSCLC
[34] = test system: ACHN renal
[35] = test system: OVCAR-4 ovarian
[36] = test system: SF-268 CNS
[37] = test system: MOLT-4 leukemia
[38] = test system: SF-539 CNS
[39] = test system: HT29 colon
[40] = test system: CAKI-1 renal
[41] = test system: OVCAR-8 ovarian
[42] = test system: LOX IMVI melanoma
[43] = test system: NCI-H23 lung
[44] = test system: UACC-62 melanoma
[45] = test system: SK-OV-3 ovarian
[46] = test system: SN12C renal
[47] = test system: SF-295 CNS
[48] = test system: SR leukemia
[49] = test system: UACC-257 melanoma
[50] = test system: HS 578T breast
[51] = test system: MCF7 breast
[52] = test system: HCT-15 colon
[53] = test system: SW-620 colon
[54] = test system: COLO 205 colon
[55] = test system: SK-MEL-5 melanoma
[56] = test system: KM12 colon
[57] = test system: A498 renal

## C=C1C[C@]23CC[C@@H]4C(CO)(CO)CC(=O)C[C@]4(C)[C@@H]2CC[C@H]1C3
[1]
  TGI: > 100 µM
[2]
  TGI: > 100 µM
[3]
  TGI: > 100 µM
[4]
  TGI: > 100 µM
[5]
  TGI: > 100 µM
[6]
  TGI: > 100 µM
[7]
  TGI: > 100 µM
[8]
  TGI: > 100 µM
[9]
  TGI: > 100 µM
[10]
  TGI: > 100 µM
[11]
  TGI: > 100 µM
[12]
  TGI: > 100 µM
[13]
  TGI: > 100 µM
[14]
  TGI: > 100 µM
[15]
  TGI: > 100 µM
[16]
  TGI: > 100 µM
[17]
  TGI: > 100 µM
[18]
  TGI: > 100 µM
[19]
  TGI: > 100 µM
[20]
  TGI: > 100 µM
[21]
  TGI: > 100 µM
[22]
  TGI: > 100 µM
[23]
  TGI: > 100 µM
[24]
  TGI: > 100 µM
[25]
  TGI: > 100 µM
[26]
  TGI: > 100 µM
[27]
  TGI: > 100 µM
[28]
  TGI: > 100 µM
[29]
  TGI: 35.9 µM
[30]
  TGI: > 100 µM
[31]
  TGI: > 100 µM
[32]
  TGI: > 100 µM
[33]
  TGI: > 100 µM
[34]
  TGI: > 100 µM
[35]
  TGI: > 100 µM
[36]
  TGI: > 100 µM
[37]
  TGI: > 100 µM
[38]
  TGI: > 100 µM
[39]
  TGI: > 100 µM
[40]
  TGI: > 100 µM
[41]
  TGI: > 100 µM
[42]
  TGI: > 100 µM
[43]
  TGI: > 100 µM
[44]
  TGI: > 100 µM
[45]
  TGI: > 100 µM
[46]
  TGI: > 100 µM
[47]
  TGI: > 100 µM
[48]
  TGI: > 100 µM
[49]
  TGI: > 100 µM
[50]
  TGI: > 100 µM
[51]
  TGI: > 100 µM
[52]
  TGI: > 100 µM
[53]
  TGI: > 100 µM
[54]
  TGI: > 100 µM

## CC1(C)CC2=C(SC3C=CC=CC3N2)C(=O)C1C(=O)C(N)=O (configuration not stated)
[1]
  TGI: > 100 µM
[2]
  TGI: > 100 µM
[3]
  TGI: > 100 µM
[4]
  TGI: > 100 µM
[5]
  TGI: > 100 µM
[6]
  TGI: > 100 µM
[7]
  TGI: > 100 µM
[8]
  TGI: > 100 µM
[9]
  TGI: > 100 µM
[10]
  TGI: > 100 µM
[11]
  TGI: > 100 µM
[12]
  TGI: > 100 µM
[13]
  TGI: > 100 µM
[14]
  TGI: > 100 µM
[15]
  TGI: > 100 µM
[16]
  TGI: > 100 µM
[17]
  TGI: > 100 µM
[19]
  TGI: > 100 µM
[20]
  TGI: > 100 µM
[21]
  TGI: > 100 µM
[23]
  TGI: > 100 µM
[24]
  TGI: > 100 µM
[25]
  TGI: > 100 µM
[26]
  TGI: > 100 µM
[27]
  TGI: > 100 µM
[29]
  TGI: > 100 µM
[30]
  TGI: > 100 µM
[31]
  TGI: > 100 µM
[32]
  TGI: > 100 µM
[33]
  TGI: > 100 µM
[34]
  TGI: > 100 µM
[35]
  TGI: > 100 µM
[36]
  TGI: > 100 µM
[37]
  TGI: > 100 µM
[38]
  TGI: > 100 µM
[39]
  TGI: > 100 µM
[40]
  TGI: > 100 µM
[55]
  TGI: > 100 µM
[41]
  TGI: > 100 µM
[42]
  TGI: > 100 µM
[43]
  TGI: > 100 µM
[44]
  TGI: > 100 µM
[45]
  TGI: > 100 µM
[46]
  TGI: > 100 µM
[47]
  TGI: > 100 µM
[49]
  TGI: > 100 µM
[50]
  TGI: > 100 µM
[56]
  TGI: > 100 µM
[51]
  TGI: > 100 µM
[52]
  TGI: > 100 µM
[53]
  TGI: > 100 µM
[54]
  TGI: > 100 µM

## COC(=O)[C@](NC(=O)OCc1ccccc1)([C@@H](C)Sc1ccc(C)cc1)C(F)(F)F
[1]
  TGI: 50.7 µM
[2]
  TGI: > 100 µM
[3]
  TGI: > 100 µM
[4]
  TGI: > 100 µM
[5]
  TGI: > 100 µM
[6]
  TGI: > 100 µM
[7]
  TGI: > 100 µM
[8]
  TGI: > 100 µM
[9]
  TGI: > 100 µM
[10]
  TGI: > 100 µM
[11]
  TGI: > 100 µM
[13]
  TGI: > 100 µM
[14]
  TGI: > 100 µM
[15]
  TGI: > 100 µM
[17]
  TGI: > 100 µM
[18]
  TGI: > 100 µM
[20]
  TGI: > 100 µM
[22]
  TGI: > 100 µM
[23]
  TGI: > 100 µM
[24]
  TGI: > 100 µM
[25]
  TGI: > 100 µM
[26]
  TGI: 78.3 µM
[27]
  TGI: > 100 µM
[28]
  TGI: > 100 µM
[29]
  TGI: > 100 µM
[30]
  TGI: > 100 µM
[31]
  TGI: > 100 µM
[32]
  TGI: > 100 µM
[57]
  TGI: > 100 µM
[34]
  TGI: > 100 µM
[35]
  TGI: > 100 µM
[36]
  TGI: > 100 µM
[37]
  TGI: > 100 µM
[38]
  TGI: > 100 µM
[39]
  TGI: > 100 µM
[40]
  TGI: > 100 µM
[55]
  TGI: 38.2 µM
[41]
  TGI: 60 µM
[42]
  TGI: > 100 µM
[43]
  TGI: 58.5 µM
[44]
  TGI: > 100 µM
[45]
  TGI: > 100 µM
[47]
  TGI: > 100 µM
[48]
  TGI: > 100 µM
[49]
  TGI: > 100 µM
[50]
  TGI: > 100 µM
[56]
  TGI: > 100 µM
[51]
  TGI: > 100 µM
[52]
  TGI: > 100 µM
[53]
  TGI: > 100 µM
[54]
  TGI: 38.4 µM
